For data set [1], the target named is angiotensin converting enzyme (ACE) (Homo sapiens, UniProt P12821). The data set is described as follows: ACE inhibitor activity (HHL substrate, OPA) and kinetics. The class given is biochemical. The note with it: mean ± SD, triplicate; nd = not detected. The procedure:
For all inhibitory activity, IC50 was calculated. The IC50 value defined as the concentration of the extract inhibiting 50% of the enzyme activity was determined by measuring the enzyme inhibitory activity and peptide contents in each sample. The IC50 value was calculated from the plotted graph of the inhibition activity for the five different peptide concentrations.
The angiotensin converting enzyme was prepared according to the method described by Karaś et al.. For ACE inhibitor activity, 5 μL of ACE was mixed with 5 μL of the samples and, after preincubation at 37 °C for 5 min, 5 μL of a 5 mM N-Hippuryl-L-histidyl-L-leucine (HHL) solution was added. The reaction was carried out at 37 °C for 60 min. Next, 0.1 M borate buffer with 0.2 M NaOH and 70 μL of an o-phthaldialdehyde OPA solution (20 mg/mL OPA in methanol) were added. The absorbance at 390 nm was measured using BioTek Microplate Readers ([…]).
Substrate solutions (5.0, 10.0, 15.0, and 20.0 mM) were prepared and used to determine the Michaelis constant (Km), the inhibition constant (Ki), and the maximum velocity (Vmax) of enzymes. The kinetic parameters were evaluated by Lineweaver–Burk’s method. The reaction conditions were the same as in the enzyme inhibitory activity assay.

Data set [2] deals with T1, α-amylase from hog pancreas (Sus scrofa, UniProt P00690).
T1 construct: α-amylase from hog pancreas (50 U/mg); from tissue; host or cells: hog pancreas
T1 sequence (P00690 16-511): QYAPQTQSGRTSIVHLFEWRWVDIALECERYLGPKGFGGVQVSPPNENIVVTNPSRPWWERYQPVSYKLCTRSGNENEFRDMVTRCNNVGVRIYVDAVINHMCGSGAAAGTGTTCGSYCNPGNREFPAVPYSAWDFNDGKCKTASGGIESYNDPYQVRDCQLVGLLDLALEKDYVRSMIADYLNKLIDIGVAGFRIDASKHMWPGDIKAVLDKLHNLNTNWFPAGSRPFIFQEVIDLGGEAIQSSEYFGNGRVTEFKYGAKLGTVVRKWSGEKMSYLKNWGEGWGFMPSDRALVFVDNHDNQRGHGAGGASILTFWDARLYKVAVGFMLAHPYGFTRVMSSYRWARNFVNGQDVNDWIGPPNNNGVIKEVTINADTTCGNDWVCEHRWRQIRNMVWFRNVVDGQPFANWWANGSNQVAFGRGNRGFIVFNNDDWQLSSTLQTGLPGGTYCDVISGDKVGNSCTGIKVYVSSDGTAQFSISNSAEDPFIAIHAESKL
As to the kind of experiment: α-amylase inhibitory activity (starch, DNS) and kinetics. The class given is biochemical. The protocol:
For all inhibitory activity, IC50 was calculated. […] The IC50 value was calculated from the plotted graph of the inhibition activity for the five different peptide concentrations. […] To measure the α-amylase inhibitory activity, a mixture of 25 μL of α-amylase solution and 25 μL of sample was first incubated at 40 °C for 5 min. Then, 50 μL of 1% (w/v) soluble starch (dissolved in 100 mM phosphate buffer containing 6 mM NaCl, pH 7) was added. After 10 min, the reaction was stopped by adding 100 μL of 3,5-dinitrosalicylic acid (DNS) and heating for 10 min. Then, the mixture was made up to 300 μL with double distilled water. After that, the absorbance at 540 nm was measured using BioTek Microplate Readers (EpochTM 2 BioTek, Bad Friedrichshall, Germany). The final results were compared with the activity of the same amount of enzyme without the inhibitor. All assays were carried out in triplicate. For IC50 value determination, the inhibitory activity for […] of samples was investigated. […] The kinetic parameters were evaluated by Lineweaver-Burk's method. The reaction conditions were the same as in the enzyme inhibitory activity assay.

The next data set concerns HECa10 cells. The data set is described as follows: LDH test. Conditions: 24-h incubation, 0.1–100 µg/mL. The class given is cell-based, murine. The procedure: The study was conducted according to the procedure described by Rokicki et al.. HECa10 cells after 80–90% confluence were trypsinized (3 min, 37 °C), centrifuged (300 g, 5 min), counted, and plated in 96-well plates at a concentration of 1 × 10^4 cells/well. Then, 24 h after seeding, cells were washed with phosphate-buffered saline (PBS) solution and culture medium (Dulbecco’s Modified Eagle Medium (DMEM) + 10% fetal bovine serum (FBS) + antibiotics, all from Life Technologies, Warsaw, Poland) was added with test factors in concentrations: 0.1; 1; 5; 10; 50; 100 µg/mL). Then, 24 h after addition of the compounds, proliferation tests (MTT, NR, LDH) were performed. The color intensity was determined using a Fluostar Omega microplate reader. Results are presented as the mean ± SD of 3 independent experiments (n = 12).
The cells were seeded in a 96-well culture plate at a concentration of 1 × 10^4 cells/well. Then, 24 h after seeding, the cells were rinsed twice with PBS (Life Technologies, Poland) and resuspended in fresh growth medium. Peptide fractions were added at concentrations of 0 (control), 0.1, 1, 5, 10, 50, and 100 µg/mL. After 24 h incubation with the proteins, activity of released from cells lactate dehydrogenase was assessed (Pierce Ldh Cytotoxicity Assay Kit, Life Technologies, Warsaw Poland).The absorption was measured at a wavelength of 540 nm with the background cutoff at 490 nm (FLUOstar Omega, BMG Labtech GmbH, Ortenberg, Germany). The results are presented as the percentage of the control values (mean ± SD). Each assay was performed in triplicate (n = 18).

No end group written: not given here.

Here are results for six sequences from article PMC7321301, “Characteristics of New Peptides GQLGEHGGAGMG, GEHGGAGMGGGQFQPV, EQGFLPGPEESGR, RLARAGLAQ, YGNPVGGVGH, and GNPVGGVGHGTTGT as Inhibitors of Enzymes Involved in Metabolic Syndrome and Antimicrobial Potential” (Molecules, 2020).

Broadly, the IC50 is the midpoint of a concentration-inhibition curve. Low values mean higher potency, high ones lower potency.

angiotensin converting enzyme (ACE), sequence (P12821 30-1306, species assumed): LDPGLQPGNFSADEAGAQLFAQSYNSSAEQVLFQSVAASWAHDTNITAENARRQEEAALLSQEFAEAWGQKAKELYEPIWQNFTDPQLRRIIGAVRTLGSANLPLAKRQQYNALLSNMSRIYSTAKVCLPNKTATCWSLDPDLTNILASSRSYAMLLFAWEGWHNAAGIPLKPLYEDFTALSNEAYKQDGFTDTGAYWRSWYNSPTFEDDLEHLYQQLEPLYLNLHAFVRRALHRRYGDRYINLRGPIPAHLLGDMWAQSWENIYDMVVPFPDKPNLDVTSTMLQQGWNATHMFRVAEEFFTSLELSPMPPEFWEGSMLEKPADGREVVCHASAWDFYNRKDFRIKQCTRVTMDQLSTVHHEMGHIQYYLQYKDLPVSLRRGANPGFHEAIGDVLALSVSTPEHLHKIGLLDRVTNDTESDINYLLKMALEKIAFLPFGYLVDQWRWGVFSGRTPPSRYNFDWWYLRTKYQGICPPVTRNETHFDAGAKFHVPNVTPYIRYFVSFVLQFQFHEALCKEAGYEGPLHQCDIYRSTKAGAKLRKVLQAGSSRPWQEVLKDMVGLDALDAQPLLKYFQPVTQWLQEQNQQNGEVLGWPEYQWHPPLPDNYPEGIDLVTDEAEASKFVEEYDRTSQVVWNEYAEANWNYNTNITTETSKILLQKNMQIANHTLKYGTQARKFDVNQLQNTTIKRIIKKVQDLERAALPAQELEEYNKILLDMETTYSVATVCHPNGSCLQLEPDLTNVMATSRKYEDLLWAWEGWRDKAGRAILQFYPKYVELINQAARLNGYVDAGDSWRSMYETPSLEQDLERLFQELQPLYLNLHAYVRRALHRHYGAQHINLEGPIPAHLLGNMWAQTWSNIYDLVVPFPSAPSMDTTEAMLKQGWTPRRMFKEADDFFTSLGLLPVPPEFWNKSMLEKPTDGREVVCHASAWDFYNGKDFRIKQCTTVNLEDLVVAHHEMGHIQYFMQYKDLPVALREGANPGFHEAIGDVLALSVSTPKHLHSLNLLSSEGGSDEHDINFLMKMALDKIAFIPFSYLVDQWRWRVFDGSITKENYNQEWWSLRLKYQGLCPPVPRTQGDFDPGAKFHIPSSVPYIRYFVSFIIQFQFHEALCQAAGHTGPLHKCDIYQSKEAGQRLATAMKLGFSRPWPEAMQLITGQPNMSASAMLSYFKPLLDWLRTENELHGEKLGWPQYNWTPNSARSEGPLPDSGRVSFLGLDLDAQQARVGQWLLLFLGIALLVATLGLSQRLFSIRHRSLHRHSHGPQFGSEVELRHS

On to EQGFLPGPEESGR [ER-13, EQGFLPGPEESGR], for which the results for the IC50 in data set [1] and in data set [2] were 457 µM and 51.1 µM, respectively. In addition, in the data set with HECa10 cells, the “LDH activity test, HECa10 cells compared to control” value is recorded as “no statistically significant differences”.
In the case of “GEHGGAGMGGGQFQPV [GV-16, GEHGGAGMGGGQFQPV]”, the half-maximal inhibitory concentration (IC50) was 490 µM in data set [1] and 44.6 µM in data set [2]. In the data set with HECa10 cells, the “LDH activity test, HECa10 cells compared to control” value was “no statistically significant differences”.
The corresponding values for GNPVGGVGHGTTGT [GT-14, GNPVGGVGHGTTGT] are 434 µM, 50 µM and “no statistically significant differences”.
For GQLGEHGGAGMG [GG-12, GQLGEHGGAGMG], the values for the half-maximal inhibitory concentration (IC50) in data set [1] and in data set [2] were 525 µM and 53 µM, respectively. For the same sequence, in the data set on HECa10 cells, the “LDH activity test, HECa10 cells compared to control” value is “no statistically significant differences”.
With RLARAGLAQ [RQ-9, RLARAGLAQ], the “IC50 ACE” value in data set [1] is reported as “no inhibitory effect”. In data set [2], this sequence had an IC50 of 69.9 µM. The “LDH activity test, HECa10 cells compared to control” value in the data set on HECa10 cells is listed as “no statistically significant differences”.
Consider YGNPVGGVGH [YH-10, YGNPVGGVGH], for which the IC50 in data set [1] was 522 µM; in data set [2] it was 80.3 µM. Moreover, the “LDH activity test, HECa10 cells compared to control” value in the data set with HECa10 cells is on record as “no statistically significant differences”.
